Patent publication US7786141B2 (Vertex Pharmaceuticals Incorporated, priority 2004, dated 2010)
Like-named read-outs stand apart in the source and are kept apart here.

Columns and labels:
[1] = target: T1, M4 muscarinic receptor (Homo sapiens, UniProt P08173); assay: Functional mobilization of intracellular calcium (FLIPR) in M4-CHO cells; assay type: cell-based
T1 construct: expressed in transfected cells; host or cells: CHO (M4-CHO)
T1 sequence (P08173 1-479): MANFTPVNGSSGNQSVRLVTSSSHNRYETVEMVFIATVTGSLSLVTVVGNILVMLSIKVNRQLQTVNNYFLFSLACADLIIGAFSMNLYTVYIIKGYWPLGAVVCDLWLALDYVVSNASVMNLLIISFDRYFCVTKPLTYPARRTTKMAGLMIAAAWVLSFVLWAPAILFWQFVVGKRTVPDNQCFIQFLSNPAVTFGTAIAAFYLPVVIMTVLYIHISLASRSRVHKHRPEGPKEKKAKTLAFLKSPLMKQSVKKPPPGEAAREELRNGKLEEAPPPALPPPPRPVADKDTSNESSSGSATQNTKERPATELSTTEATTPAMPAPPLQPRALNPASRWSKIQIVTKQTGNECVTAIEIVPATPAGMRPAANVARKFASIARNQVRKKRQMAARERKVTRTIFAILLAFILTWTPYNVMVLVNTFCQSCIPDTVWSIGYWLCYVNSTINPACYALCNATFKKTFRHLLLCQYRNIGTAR
Method in brief: (§1)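 FLIPR Ca2+ read, ex 488/em 540 nm, 60 s. Recombinant CHO lines (M1 or M4), dye-loaded Fluo-3 AM 60-90 min at 37° C, probenecid 1 mM, pH 7.4. Agonist: compound alone; inhibition: 15 min compound pre-incubation, then carbachol at EC80 for that subtype.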

[2] = target: T2, M1 muscarinic receptor (Homo sapiens, UniProt P11229); assay: Functional mobilization of intracellular calcium (FLIPR) in M1-CHO cells; assay type: cell-based
T2 construct: expressed in transfected cells; host or cells: CHO (M1-CHO)
T2 sequence (P11229 1-460): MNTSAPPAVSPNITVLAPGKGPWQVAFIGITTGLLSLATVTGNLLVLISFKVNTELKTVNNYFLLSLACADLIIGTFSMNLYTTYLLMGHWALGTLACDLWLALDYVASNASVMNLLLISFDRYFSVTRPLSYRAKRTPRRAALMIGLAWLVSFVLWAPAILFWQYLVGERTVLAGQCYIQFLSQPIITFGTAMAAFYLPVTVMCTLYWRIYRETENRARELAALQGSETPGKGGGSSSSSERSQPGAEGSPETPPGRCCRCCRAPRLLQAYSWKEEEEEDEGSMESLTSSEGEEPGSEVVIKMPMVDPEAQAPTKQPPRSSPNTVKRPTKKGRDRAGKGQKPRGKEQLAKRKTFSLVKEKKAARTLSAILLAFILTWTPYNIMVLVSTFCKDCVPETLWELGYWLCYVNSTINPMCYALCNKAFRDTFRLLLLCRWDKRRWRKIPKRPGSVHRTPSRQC
Method in brief: as §1

[3] = M4 receptor, calcium mobilization
[4] = M4 receptor, calcium mobilization, read-out: M4 Efficacy
[5] = M1 receptor, calcium mobilization
[6] = M1 receptor, calcium mobilization, read-out: M1 Efficacy
[7] = Table 4, 100% efficacy is the maximum response obtained with the Carbachol control
[8] = Table 4, modulating M4 receptor
[9] = Table 4, modulating M1 receptor
[10] = Table 4, M4 receptor, calcium mobilization (FLIPR)
[11] = Table 4, M1 receptor, calcium mobilization (FLIPR)

SMILES	M4 Activity [1, 3]	Emax [1, 4] [%]	M1 Activity [2, 5]	Emax [2, 6] [%]	Emax [1, 7] [%]	M4 Activity [1, 8]	Emax [2, 7] [%]	M1 Activity [2, 9]	other results
CCOC(=O)N1CCC(N2CCC3(CC2)CN(C(=O)c2ccncc2)c2ccc(F)cc23)CC1 [compound 260]	x (activity was measured to be greater than 1.0 μM)	< 65	xxx (activity was measured to be less than 0.1 μM)	65 to 85	–	–	–	–	–
CC(=O)N[C@H]1CC2(CCN(CC(=O)N3CCC(=O)N3)CC2)c2ccccc21 [compound 780]	–	–	–	–	< 25	x (activity was measured to be greater than 5.0 μM)	< 25	x (activity was measured to be greater than 5.0 μM)	–
CCNC(=O)N1CC2(CCN(C3CC4CCC3C4)CC2)c2cc(C)ccc21 (centres unmarked) [compound 400]	–	–	–	–	–	–	–	–	EC50 ([1]; M4-CHO cells, calcium mobilization (FLIPR)): > 1000 nM; Emax ([1]; M4-CHO cells, calcium mobilization (FLIPR), read-out: M4 Efficacy): < 65%; EC50 ([2]; M1-CHO cells, calcium mobilization (FLIPR)): > 1000 nM; Emax ([2]; M1-CHO cells, calcium mobilization (FLIPR), read-out: M1 Efficacy): < 65%
CCC(C)(C)C1CCC(N2CCC3(CC[C@H](NC(C)=O)c4ccccc43)CC2)CC1 (some centres unmarked) [compound 624]	–	–	–	–	< 25	x (activity was measured to be greater than 5.0 μM)	25 to 100	xxx (activity was measured to be less than 2.0 μM)	–
CN(C)C(=O)N1CC2(CCN(C[C@H]3CCN(c4nccs4)C3)CC2)c2cc(F)ccc21 [compound 852]	–	–	–	–	25 to 100	–	25 to 100	–	M4 Activity [1, 10]: xxx (activity was measured to be less than 2.0 μM); M1 Activity [2, 11]: xx (activity was measured to be between 2.0 μM and 5.0 μM)
CS(=O)(=O)N1CC2(CCN(C3CC4CCC(C3)N4C(=O)OC3CCC3)CC2)c2cc(F)ccc21 (centres unmarked) [compound 122]	xx (activity was measured to be between 0.1 μM and 1.0 μM)	< 65	xxx (activity was measured to be less than 0.1 μM)	65 to 85	–	–	–	–	–
CCOC(=O)N1CCC(N2CCC3(CC2)CN(C(C)=O)c2c(-c4ccc(C(F)(F)F)cc4)cccc23)CC1 [compound 653]	–	–	–	–	25 to 100	x (activity was measured to be greater than 5.0 μM)	25 to 100	x (activity was measured to be greater than 5.0 μM)	–
CCOC(=O)N[C@@H]1CC2(CCN(C[C@H]3C[C@H]4CC[C@H]3C4)CC2)c2ccccc21 [compound 275]	xx (activity was measured to be between 0.1 μM and 1.0 μM)	> 85	xxx (activity was measured to be less than 0.1 μM)	65 to 85	–	–	–	–	–
C#CCOC(=O)N1CC[C@@H](CN2CCC3(CC2)CN(C(C)=O)c2ccccc23)C1 [compound 816]	–	–	–	–	> 100	–	> 100	–	M4 Activity [1, 10]: xxx (activity was measured to be less than 2.0 μM); M1 Activity [2, 11]: xxx (activity was measured to be less than 2.0 μM)
CC(=O)N[C@@H]1CC2(CCN([C@@H]3C[C@H]4CC[C@@H]3C4)CC2)c2ccccc21 [compound 323]	x (activity was measured to be greater than 1.0 μM)	65 to 85	xx (activity was measured to be between 0.1 μM and 1.0 μM)	65 to 85	–	–	–	–	–
Cc1cc(C(=O)N2CC3(CCN(C4CC5CCC(C4)N5C(=O)O[C@@H]4CCOC4)CC3)c3cc(F)ccc32)nn1C (some centres unmarked) [compound 233]	xxx (activity was measured to be less than 0.1 μM)	> 85	xxx (activity was measured to be less than 0.1 μM)	65 to 85	–	–	–	–	–
CC(=O)N[C@H]1CC2(CCN(C3CC(C)(C)CC(C)(C)C3)CC2)c2ccccc21 [compound 641]	–	–	–	–	< 25	x (activity was measured to be greater than 5.0 μM)	< 25	x (activity was measured to be greater than 5.0 μM)	–
CC(=O)N1CC2(CCN(C3CCOCC3)CC2)c2cc(F)ccc21 [compound 268]	x (activity was measured to be greater than 1.0 μM)	< 65	x (activity was measured to be greater than 1.0 μM)	< 65	–	–	–	–	–
Cc1ccc2c(c1)C1(CCN(CC3CC4C=CC3C4)CC1)CN2 (centres unmarked) [compound 3]	xx (activity was measured to be between 0.1 μM and 1.0 μM)	65 to 85	xxx (activity was measured to be less than 0.1 μM)	65 to 85	–	–	–	–	–
c1ccc2c(c1)NCC21CCN(C2CCC3CCC2C3)CC1 (centres unmarked) [compound 244]	x (activity was measured to be greater than 1.0 μM)	65 to 85	xx (activity was measured to be between 0.1 μM and 1.0 μM)	65 to 85	–	–	–	–	–
CCOC(=O)N1CCC(N2CCC3(CC2)CC(=O)c2cc(C)ccc23)CC1 [compound 783]	–	–	–	–	25 to 100	xx (activity was measured to be between 2.0 μM and 5.0 μM)	25 to 100	xxx (activity was measured to be less than 2.0 μM)	–
CC(=O)N1CC2(CCN(C3CCCCCC3)CC2)c2cc(F)ccc21 [compound 210]	x (activity was measured to be greater than 1.0 μM)	< 65	xx (activity was measured to be between 0.1 μM and 1.0 μM)	65 to 85	–	–	–	–	–
CC(=O)NC1CCC2(CCN(CCC3CCCN(C(=O)OCC(C)C)C3)CC2)c2ccccc21 (centres unmarked) [compound 741]	–	–	–	–	< 25	x (activity was measured to be greater than 5.0 μM)	< 25	x (activity was measured to be greater than 5.0 μM)	–
O=C1Nc2ccccc2C12CCN(C1CC3CCC1C3)CC2 (centres unmarked) [compound 259]	x (activity was measured to be greater than 1.0 μM)	< 65	x (activity was measured to be greater than 1.0 μM)	65 to 85	–	–	–	–	–
COCCN1CC2(CCN(C3CCCCCC3)CC2)c2cc(F)ccc21 [compound 958]	–	–	–	–	25 to 100	–	25 to 100	–	M4 Activity [1, 10]: xxx (activity was measured to be less than 2.0 μM); M1 Activity [2, 11]: xxx (activity was measured to be less than 2.0 μM)
CCOC(=O)N1CCC(CN2CCC3(CC2)CN(C(C)=O)c2ccc(C)cc23)CC1 [compound 46]	xxx (activity was measured to be less than 0.1 μM)	65 to 85	xxx (activity was measured to be less than 0.1 μM)	> 85	–	–	–	–	–
CCC#CCOC(=O)N1CC[C@@H](CN2CCC3(CC2)CN(C(=O)N(C)C)c2ccc(F)cc23)C1 [compound 645]	–	–	–	–	25 to 100	xxx (activity was measured to be less than 2.0 μM)	25 to 100	xxx (activity was measured to be less than 2.0 μM)	–
CC(=O)N1CC2(CCN(C3CCC[C@@H](C)C3)CC2)c2cc(F)ccc21 (some centres unmarked) [compound 240]	x (activity was measured to be greater than 1.0 μM)	> 85	xx (activity was measured to be between 0.1 μM and 1.0 μM)	65 to 85	–	–	–	–	–
